Results published in US6987093B2 (priority 2001, dated 2006).
Values after ≈ are worked out from the molar mass of the structure shown. Values joined by “and” are separate entries in the source; they are usually repeats but may differ in a detail not shown here. Equal values may be shown once.

Key:
H. influenzae = test: Single dose azithromycin pediatric AOM trial, subjects with H. influenzae at baseline; format: in vivo, human
Text: (§1) Children six months to twelve years were enrolled if they had symptoms and signs of acute otitis media (“AOM”) for less than four weeks and middle ear effusion by acoustic reflectometry. Symptoms necessary for enrollment included ear pain or fullness, discharge from the external auditory canal, decreased hearing or fever. On physical examination they must have had one or more of the following: bulging or marked erythema of the tympanic membrane, loss of the normal light reflex or tympanic membrane landmarks, or impaired tympanic mobility on biphasic pneumatic otoscopy. The effusion was to be documented by acoustic reflectometry with an abnormal reading of 3 or higher.
(§2) Samples of middle ear fluid were obtained by tympanocentesis or, in the case of a perforated tympanic membrane, by swab. Middle ear fluid samples were obtained for culture at baseline. […] Children who vomited within thirty minutes of dosing were redosed.
(§3) Samples of middle ear fluid were split for storage at a central laboratory and cultured locally.
(§4) A phone contact occurred on study day 5 to assess for adverse events followed by visits on days 10 and 24–28, at which time detailed clinical assessments were made and adverse events were recorded. Definitions included clinical cure (complete resolution of all signs and symptoms of AOM); improvement (partial resolution of signs and symptoms); or failure (no change or worsening of signs and symptoms, or requirement for additional antibiotic therapy for AOM). Any patient considered to have failed therapy was to have a repeat tympanocentesis.
The primary endpoint of the trial was the investigator designated cure rate at Day 24–28 for which a 95% confidence interval was computed using the normal approximation to the binomial distribution. Other endpoints analyzed included the clinical response rate by baseline pathogen at Day 24–28, the overall clinical response at Day 10, the percentage of subjects with individual signs and symptoms, as well as findings from pneumatic otoscopy and acoustic reflectometry. […]

pneumococcal challenge = details: single dose compared with all the other dose regimens; cited from earlier work
[1] = test system: Haemophilus influenzae 54A1100; test: Gerbil middle ear (otitis media) infection model, ED50, H. influenzae 54A1100; format: in vivo
[2] = test system: Streptococcus pneumoniae 02J1016; test: Murine peritonitis model, Streptococcus pneumoniae; format: in vivo, mouse; details: oral QD
H. influenzae 54A1218 = test: MIC determination, H. influenzae 54A1218; format: cell-based; details: Haemophilus influenzae
Protocol: MIC Determinations. Streptococcus pneumoniae, S. pyogenes, E. faecalis, and H. influenzae MICs were determined using the broth microdilution procedure recommended by the NCCLS. Test trays were incubated at 35C without carbon dioxide. For testing of streptococci, the cation-adjusted Mueller-Hinton broth was supplemented with 2–3% lysed horse blood. For testing H. influenzae, freshly prepared Haemophilus Test Medium broth was used.
Bacterial Strains. • S. pneumoniae 02J1016, serotype 3, originally isolated from blood culture (strain P 4241) (MLS- and penicillin-susceptible). • S. pyogenes 02C0203, ATCC 12384, group A, type 3 (MLS-susceptible). • E. faecalis 03A1085, vancomycin susceptible clinically derived strain. • H. influenzae 54A1100, (43095 ATCC Fulghum strain) non-serotype B strain originally isolated from otitis media (macrolide and penicillin susceptible). • H. influenzae 54A1218, clinically derived non-serotype B strain (macrolide-susceptible, penicillin-resistant, TEM-1 beta-lactamase).

[3] = test system: Haemophilus influenzae 54A1100; test: Gerbil middle ear infection in vivo time kill, H. influenzae 54A1100
S. pneumoniae = test: Single dose azithromycin pediatric AOM trial, subjects with S. pneumoniae at baseline; format: in vivo, human; details: for patients cured at day 28: 30 mg/kg
Text: as §1, §2, §3, §4
(§5) The primary endpoint of the trial was the investigator designated cure rate at Day 24–28 for which a 95% confidence interval was computed using the normal approximation to the binomial distribution. Other endpoints analyzed included the clinical response rate by baseline pathogen at Day 24–28, the overall clinical response at Day 10, the percentage of subjects with individual signs and symptoms, as well as findings from pneumatic otoscopy and acoustic reflectometry. Only Streptococcus pneumoniae, Moraxella catarrhalis and Haemophilus influenzae were considered baseline pathogens for the purposes of these analyses.
(§6) Not all strains are equally virulent and the growth rate and kinetics of infection may influence the outcome. In addition, H. influenzae has been a difficult organism to culture from the middle ear.

[4] = test system: Haemophilus influenzae 54A1218; test: Gerbil middle ear (otitis media) infection model, ED50, H. influenzae 54A1218; format: in vivo; details: for ED50: past studies
[5] = test system: Haemophilus influenzae 54A1218; test: Gerbil middle ear infection in vivo time kill, H. influenzae 54A1218; details: for eradication: at 72 and 96 hours post-infection
acute otitis media = test: Single 30 mg/kg dose azithromycin pediatric acute otitis media trial (Study A0661015), all subjects
Text: Craig, W. A., “Postantibiotic effects and the dosing of Macrolides, azalides, and streptogramins”, In: Zinner, S. H. et al. (editor) Expanding Indications for New Macrolides, Azalides, and Streptogramins, New York: Marel Dekker (1997), pp. 27–38.
as §1, §2, §4, §5
This trial was an open-label, non-comparative study conducted at twenty-two sites from the United States, Costa Rica, Guatemala and Chile.
as §6

[6] = test system: Haemophilus influenzae 54A1100; test: Murine acute infection (peritonitis) model challenged with Haemophilus influenzae; format: in vivo, mouse; details: for PD50: s.c.
[7] = oral QD, gerbil otitis media model
[8] = 66.6 mg/kg/day oral Q.D. [3 days], 48 hours post-infection
[9] = 66.6 mg/kg/day oral Q.D. [3 days], 72 hours post-infection
[10] = 66.6 mg/kg/day oral Q.D. [3 days], 96 hours post-infection
[11] = 100 mg/kg/day oral Q.D. [2 days], 48 hours post-infection
[12] = 100 mg/kg/day oral Q.D. [2 days], 72 hours post-infection
[13] = 100 mg/kg/day oral Q.D. [2 days], 96 hours post-infection
[14] = 200 mg/kg/day oral Q.D. [1 day], 48 hours post-infection
[15] = 200 mg/kg/day oral Q.D. [1 day], 72 hours post-infection
[16] = 200 mg/kg/day oral Q.D. [1 day], 96 hours post-infection
[17] = oral QD, murine peritonitis model

CC[C@H]1OC(=O)[C@H](C)[C@@H](O[C@H]2C[C@@](C)(OC)[C@@H](O)[C@H](C)O2)[C@H](C)[C@@H](O[C@@H]2O[C@H](C)C[C@H](N(C)C)[C@H]2O)[C@](C)(O)C[C@@H](C)CN(C)[C@H](C)[C@@H](O)[C@]1(C)O [Azithromycin, 9a-aza-9a-methyl-9-deoxo-9a-homoerythromycin A]
clinical failure (and presumed persistence) rate (H. influenzae; MITT, thirty-nine evaluable H. influenzae strains): 33.3%
clinical cure rate overall with PCR-identified H. influenzae cures added (H. influenzae; TOC, seventeen PCR-identified patients added): 76.8%
clinical outcome at test of cure of patients with H. influenzae identified by PCR only (H. influenzae; seventeen additional patients): clinically cured
survival versus a pneumococcal challenge (pneumococcal challenge): significantly increased survival
ED50 ([1]; Dosing Regimen 1 day): 138.1 (118.7–157.6) mg/kg/total
ED50 ([1]; Dosing Regimen 2 days): 138.1 (118.7–157.6) mg/kg/total
ED50 ([1]; Dosing Regimen 3 days): 162.9 (140–185.9) mg/kg/total
ED50 One-Day Therapy [1, 7]: 138 mg/kg/therapy
ED50 Three-Day Therapy [1, 7]: 163 mg/kg/therapy
ED50 Two-Day Therapy [1, 7]: 138 mg/kg/therapy
ED50 ([1]; past studies, Q.D. 3): 162.7 mg/kg/total regimen
ED50 One-Day Therapy [2]: 8.7^1 mg/kg/therapy
ED50 Three-Day Therapy [2]: 15.1 mg/kg/therapy
ED50 Two-Day Therapy [2]: 7.6 mg/kg/therapy
MIC (H. influenzae 54A1218): 0.78 µg/mL (≈ 1.04 µM)
Recoverable CFU (Bulla) [Log10.Geo.Mean] (SEM) [3, 8]: 5.8817 (0.44) log of cfu-bulla wash/ml and 5.8817 log of cfu-bulla wash/ml
Recoverable CFU (Bulla) [Log10.Geo.Mean] (SEM) [3, 9]: 4.5981 (0.14) log of cfu-bulla wash/ml and 4.5981 log of cfu-bulla wash/ml
Recoverable CFU (Bulla) [Log10.Geo.Mean] (SEM) [3, 10]: 6.1520 (0.75) log of cfu-bulla wash/ml and 6.1520 log of cfu-bulla wash/ml
Recoverable CFU (Bulla) [Log10.Geo.Mean] (SEM) [3, 11]: 5.7572 (0.54) log of cfu-bulla wash/ml and 5.7572 log of cfu-bulla wash/ml
Recoverable CFU (Bulla) [Log10.Geo.Mean] (SEM) [3, 12]: <2.4580 (0.46) log of cfu-bulla wash/ml and <2.4580 log of cfu-bulla wash/ml
Recoverable CFU (Bulla) [Log10.Geo.Mean] (SEM) [3, 13]: <3.1112 (1.11) log of cfu-bulla wash/ml and <3.1112 log of cfu-bulla wash/ml
Recoverable CFU (Bulla) [Log10.Geo.Mean] (SEM) [3, 14]: <2.0000 log of cfu-bulla wash/ml
Recoverable CFU (Bulla) [Log10.Geo.Mean] (SEM) [3, 15]: <2.0000 log of cfu-bulla wash/ml
Recoverable CFU (Bulla) [Log10.Geo.Mean] (SEM) [3, 16]: <2.0000 log of cfu-bulla wash/ml
eradication, test subjects ([3]; Q.D. 2 (100 mg/kg on day 1 and 2), at 72 and at 96 hours post-infection): 4/5
eradication in any test subject ([3]; Q.D. 3 (66.6 mg/kg on day 1, 2 and 3), 72 and 96 hours post-infection): not observed
clinical cure rate versus susceptible S. pneumoniae isolates (S. pneumoniae; MICs≦0.25 μg/ml): 92.5%
strains clinically cured (S. pneumoniae; human, in vivo): 40%
patients cured at day 28 (S. pneumoniae; human, in vivo): two of these five
Clinical cure at day 28, number of children (S. pneumoniae; nine children with penicillin resistant S. pneumoniae isolates (MIC≧2 μg/ml)): 6
clinical cure rate versus resistant S. pneumoniae isolates (S. pneumoniae; resistant isolates): 66.7%
patients cured at day 28 (S. pneumoniae; seven patients with mef A isolates (MIC 8 μg/ml), single 30 mg/kg dose): Six of these seven and 6/7
ED50 One-Day Therapy [4, 7]: 84 mg/kg/therapy
ED50 Three-Day Therapy [4, 7]: 65 mg/kg/therapy
ED50 Two-Day Therapy [4, 7]: 53 mg/kg/therapy
ED50 ([4]; Q.D. 1): 83.8 (53.6–114.1) mg/kg/total regimen
ED50 ([4]; Q.D. 2): 53.4 (21.2–85.5) mg/kg/total regimen
ED50 ([4]; Q.D. 3): 65.2 (51–79.4) mg/kg/total regimen
Recoverable CFU (Bulla) [Log10.Geo.Mean] (SEM) [5, 8]: <5.2399 (1.21) log of cfu-bulla wash/ml and <5.2399 log of cfu-bulla wash/ml
Recoverable CFU (Bulla) [Log10.Geo.Mean] (SEM) [5, 9]: <2.0000 log of cfu-bulla wash/ml
Recoverable CFU (Bulla) [Log10.Geo.Mean] (SEM) [5, 10]: <2.0000 log of cfu-bulla wash/ml
Recoverable CFU (Bulla) [Log10.Geo.Mean] (SEM) [5, 11]: <3.8587 (1.04) log of cfu-bulla wash/ml and <3.857 log of cfu-bulla wash/ml
Recoverable CFU (Bulla) [Log10.Geo.Mean] (SEM) [5, 12]: <2.0000 log of cfu-bulla wash/ml
Recoverable CFU (Bulla) [Log10.Geo.Mean] (SEM) [5, 13]: <2.0000 log of cfu-bulla wash/ml
Recoverable CFU (Bulla) [Log10.Geo.Mean] (SEM) [5, 14]: <2.0000 log of cfu-bulla wash/ml
Recoverable CFU (Bulla) [Log10.Geo.Mean] (SEM) [5, 15]: <2.0602 log of cfu-bulla wash/ml
Recoverable CFU (Bulla) [Log10.Geo.Mean] (SEM) [5, 16]: <2.0000 log of cfu-bulla wash/ml
eradication ([5]; Q.D. 2): eradication was observed
eradication ([5]; Q.D. 3): eradication was observed
% Clearance of Group ([5]; QD1, 48 hours post infection, <1 × 10^3 cfu/ml considered negative): 100%
% Clearance of Group ([5]; QD1, 72 hours post infection): 100%
% Clearance of Group ([5]; QD1, 96 hours post infection): 100%
% Clearance of Group ([5]; QD2, 48 hours post infection): 40%
% Clearance of Group ([5]; QD2, 72 hours post infection): 100%
% Clearance of Group ([5]; QD2, 96 hours post infection): 100%
% Clearance of Group ([5]; QD3, 48 hours post infection): 40%
% Clearance of Group ([5]; QD3, 72 hours post infection): 100%
% Clearance of Group ([5]; QD3, 96 hours post infection): 100%
children with acoustic reflectometry scores improved from baseline (acute otitis media; by day 24–28): 83%
children with completely normal acoustic reflectometry readings (acute otitis media; by day 24–28): 53%
patients with complete resolution of baseline symptoms (acute otitis media; by day 28): Ninety-two
patients with impaired tympanic membrane motility (acute otitis media; day 10 (93% at baseline)): 27%
subjects with other objective signs of tympanic membrane disease (acute otitis media; day 24–28): less than 10%
patients with impaired tympanic membrane motility (acute otitis media; day 24–28 (93% at baseline)): 12%
adverse event diarrhea (acute otitis media; single 30 mg/kg oral dose): 3%
adverse event vomiting (acute otitis media; single 30 mg/kg oral dose): 6%
Oral PD50 ([6]; Dosing Regimen 1 day): 25.3 (14.3–36.2) mg/kg/day
Oral PD50 ([6]; Dosing Regimen 2 days): 49.9 (41.5–58.5) mg/kg/day
Oral PD50 ([6]; Dosing Regimen 3 days): 181.6 (180.1–183.1) mg/kg/day
Mice Surviving/Total ([6]; mouse, in vivo): 0/10 and 6/10 and 10/10 and 9/10 and 1/10 and 5/10
PD50 ([6]; one therapeutic dose (one day regimen)): 25.3 mg/kg
ED50 One-Day Therapy [6, 17]: 30.3^1 mg/kg/therapy
ED50 Three-Day Therapy [6, 17]: 147 mg/kg/therapy
ED50 Two-Day Therapy [6, 17]: 48 mg/kg/therapy
PD50 ([6]; previously tested, standard dosing paradigm (b.i.d. on day 1)): 27 mg/kg
